In ChEMBL document CHEMBL6087389, “Hydrazone-Functionalized trans-A2B-Corroles: Effective Synergy in Photodynamic Therapy of Lung Cancer” (J Med Chem, 2024):
Activity calls are given as the source filed them. The calls are words filed in the database; no cut-off is given here.

Assays:
[1] = Fluorescence property of the compound in THF assessed as fluorescence quantum yield by photoluminescence quantum yield spectrometer; assay type: physicochemical
[2] = Fluorescence property of the compound in DMSO assessed as fluorescence quantum yield by photoluminescence quantum yield spectrometer; assay type: physicochemical
[3] = Induction of singlet oxygen generation in THF assessed as singlet oxygen quantum yield by comparative photoluminescence method; assay type: functional
[4] = Phototoxicity against human A549 cells assessed as reduction in cell viability preincubated for 24 hrs followed by 7.5 to 10 mW/cm^-2 red light irradiation and measured after 24 hrs by MTT assay; assay type: functional, cell-based; details: A549, light or radiation study
[5] = Phototoxicity against human NCI-H1299 cells assessed as reduction in cell viability preincubated for 24 hrs followed by 7.5 to 10 mW/cm^-2 red light irradiation and measured after 24 hrs by MTT assay; assay type: functional, cell-based; details: NCI-H1299, light or radiation study
A549 [6] = test: Dark toxicity against human A549 cells assessed as reduction in metabolic activity at <1 uM incubated for 4 hrs by MTT assay; assay type: cell-based; details: a549, 4 h
NCI-H1299 [7] = test: Dark toxicity against human NCI-H1299 cells assessed as reduction in metabolic activity at <1 uM incubated for 4 hrs by MTT assay; assay type: cell-based; details: nci-h1299, 4 h
A549 [8] = test: Dark toxicity against human A549 cells assessed as reduction in metabolic activity at 10 uM incubated for 4 hrs by MTT assay; assay type: cell-based; details: a549, 4 h
NCI-H1299 [9] = test: Dark toxicity against human NCI-H1299 cells assessed as reduction in metabolic activity at 10 uM incubated for 4 hrs by MTT assay; assay type: cell-based; design: scale not given: the % may be the effect or the level left; details: nci-h1299, 4 h
A549 [10] = test: Induction of apoptosis in human A549 cells assessed as reduction in viable cells at 100 nM preincubated for 24 hrs followed by irradiated with 7.5 to 10 mW/cm^-2 red light for 24 hrs by Annexin V and propidium iodide staining based flow cytometry relative to control; assay type: functional; details: time 48 hrs
A549 [11] = test: Induction of apoptosis in human A549 cells assessed as early apoptotic cells at 100 to 500 nM preincubated for 24 hrs followed by irradiated with 7.5 to 10 mW/cm^-2 red light for 24 hrs by Annexin V and propidium iodide staining based flow cytometry relative to control; assay type: functional; details: dose 100-500 nM, time 48 hrs
A549 [12] = test: Induction of apoptosis in human A549 cells assessed as late apoptotic/necrotic cells at 100 to 500 nM preincubated for 24 hrs followed by irradiated with 7.5 to 10 mW/cm^-2 red light for 24 hrs by Annexin V and propidium iodide staining based flow cytometry relative to control; assay type: functional; details: dose 100-500 nM, time 48 hrs
A549 [13] = test: Induction of apoptosis in human A549 cells assessed as viable cells at 500 nM preincubated for 24 hrs followed by irradiated with 7.5 to 10 mW/cm^-2 red light for 24 hrs by Annexin V and propidium iodide staining based flow cytometry relative to control; assay type: functional; details: A549, light or radiation study, time 48 hrs, read-out: Activity
A549 [14] = test: Induction of apoptosis in human A549 cells assessed as late apoptotic/necrotic cells at 500 nM preincubated for 24 hrs followed by irradiated with 7.5 to 10 mW/cm^-2 red light for 24 hrs by Annexin V and propidium iodide staining based flow cytometry relative to control; assay type: functional; details: time 48 hrs
NCI-H1299 [15] = test: Induction of apoptosis in human NCI-H1299 cells assessed as reduction in viability at 100 to 500 nM preincubated for 24 hrs followed by irradiated with 7.5 to 10 mW/cm^-2 red light for 24 hrs by Annexin V and propidium iodide staining based flow cytometry relative to control; assay type: functional; details: dose 100-500 nM, time 48 hrs
NCI-H1299 [16] = test: Induction of apoptosis in human NCI-H1299 cells assessed as late apoptotic/necrotic cells at 100 nM preincubated for 24 hrs followed by irradiated with 7.5 to 10 mW/cm^-2 red light for 24 hrs by Annexin V and propidium iodide staining based flow cytometry relative to control; assay type: functional; details: time 48 hrs
NCI-H1299 [17] = test: Induction of apoptosis in human NCI-H1299 cells assessed as late apoptotic/necrotic cells at 500 nM preincubated for 24 hrs followed by irradiated with 7.5 to 10 mW/cm^-2 red light for 24 hrs by Annexin V and propidium iodide staining based flow cytometry relative to control; assay type: functional; details: time 48 hrs
NCI-H1299 [18] = test: Induction of apoptosis in human NCI-H1299 cells assessed as early apoptotic cells at 100 nM preincubated for 24 hrs followed by irradiated with 7.5 to 10 mW/cm^-2 red light for 24 hrs by Annexin V and propidium iodide staining based flow cytometry relative to control; assay type: functional; details: time 48 hrs
NCI-H1299 [19] = test: Induction of apoptosis in human NCI-H1299 cells assessed as early apoptotic cells at 500 nM preincubated for 24 hrs followed by irradiated with 7.5 to 10 mW/cm^-2 red light for 24 hrs by Annexin V and propidium iodide staining based flow cytometry relative to control; assay type: functional; details: time 48 hrs
NCI-H1299 [20] = test: Induction of apoptosis in human NCI-H1299 cells assessed as appearance of necrosis at 100 to 250 nM preincubated for 24 hrs followed by irradiated with 7.5 to 10 mW/cm^-2 red light for 24 hr by May-Grunwald/Giemsa staining by light microscopic analysis; assay type: functional, cell-based; details: dose 100-250 nM, time 48.0 hrs
A549 [21] = test: Reduction in hydrogen peroxide production in human A549 cells irradiated with 7.5 to 10 mW/cm^-2 red light for 24 hrs at 100 to 250 nM measured after 2 hrs by DHE and DCFH2-DA staining based fluorimetric analysis; assay type: functional, cell-based; details: dose 100-250 nM
NCI-H1299 [22] = test: Reduction in hydrogen peroxide production in human NCI-H1299 cells irradiated with 7.5 to 10 mW/cm^-2 red light for 24 hrs at 0 to 250 nM incubated for 2 hrs by DHE and DCFH2-DA staining based fluorimetric analysis; assay type: functional, cell-based; details: dose 0-250 nM
NCI-H1299 [23] = test: Induction of superoxide anion production in human NCI-H1299 cells irradiated with 7.5 to 10 mW/cm^-2 red light for 24 hrs at 100 to 250 nM incubated for 2 hrs by DHE and DCFH2-DA staining based fluorimetric analysis; assay type: functional, cell-based; details: dose 100-250 nM
A549 [24] = test: Induction of superoxide anion production in human A549 cells irradiated with 7.5 to 10 mW/cm^-2 red light for 24 hrs at 100 to 250 nM incubated for 2 hrs by DHE and DCFH2-DA staining based fluorimetric analysis; assay type: functional, cell-based; details: dose 100-250 nM
A549 [25] = test: Induction of apoptosis in human A549 cells assessed as reduction in viable cells at 500 nM preincubated for 24 hrs followed by irradiated with 7.5 to 10 mW/cm^-2 red light for 24 hrs by Annexin V and propidium iodide staining based flow cytometry relative to control; assay type: functional; details: time 48 hrs
A549 [26] = test: Induction of apoptosis in human A549 cells assessed as increase in apoptotic cells at 100 nM preincubated for 24 hrs followed by irradiated with 7.5 to 10 mW/cm^-2 red light for 24 hrs by Annexin V and propidium iodide staining based flow cytometry relative to control; assay type: functional; details: time 48 hrs
A549 [27] = test: Induction of apoptosis in human A549 cells assessed as increase in apoptotic cells at 500 nM preincubated for 24 hrs followed by irradiated with 7.5 to 10 mW/cm^-2 red light for 24 hrs by Annexin V and propidium iodide staining based flow cytometry relative to control; assay type: functional; details: time 48 hrs
A549 [28] = test: Induction of apoptosis in human A549 cells assessed as late apoptotic cells at 100 nM preincubated for 24 hrs followed by irradiated with 7.5 to 10 mW/cm^-2 red light for 24 hrs by Annexin V and propidium iodide staining based flow cytometry relative to control; assay type: functional; details: time 48 hrs
A549 [29] = test: Induction of apoptosis in human A549 cells assessed as late apoptotic cells at 500 nM preincubated for 24 hrs followed by irradiated with 7.5 to 10 mW/cm^-2 red light for 24 hrs by Annexin V and propidium iodide staining based flow cytometry relative to control; assay type: functional; details: time 48 hrs
A549 [30] = test: Induction of apoptosis in human A549 cells assessed as necrotic cells at 100 nM preincubated for 24 hrs followed by irradiated with 7.5 to 10 mW/cm^-2 red light for 24 hrs by Annexin V and propidium iodide staining based flow cytometry relative to control; assay type: functional; details: time 48 hrs
A549 [31] = test: Induction of apoptosis in human A549 cells assessed as necrotic cells at 500 nM preincubated for 24 hrs followed by irradiated with 7.5 to 10 mW/cm^-2 red light for 24 hrs by Annexin V and propidium iodide staining based flow cytometry relative to control; assay type: functional; details: time 48 hrs
A549 [32] = test: Photocytotoxicity in human A549 cells assessed as metabolic activity in presence of sodium azide measured preincubated for 24 hrs followed by irradiated with 7.5 to 10 mW/cm^-2 red light for 24 hrs by MTT assay; assay type: functional, cell-based; details: A549, light or radiation study
Mitochondrial membrane [33] = test: Induction of mitochondrial membrane depolarization in human A549 cells assessed as increase in monomer to aggregate ratio at 100 nM preincubated for 15 mins irradiated with 7.5 to 10 mW/cm^-2 red light by JC-1 fluorescent probe based flow cytometric analysis (reference value: 24.7+/-6.9); assay type: cell membranes
Mitochondrial membrane [34] = test: Induction of mitochondrial membrane depolarization in human A549 cells assessed as increase in monomer to aggregate ratio at 250 nM preincubated for 15 mins irradiated with 7.5 to 10 mW/cm^-2 red light by JC-1 fluorescent probe based flow cytometric analysis (reference value: 24.7+/-6.9); assay type: cell membranes
Mitochondrial membrane [35] = test: Induction of mitochondrial membrane depolarization in human NCI-H1299 cells assessed as increase in monomer to aggregate ratio at 100 nM preincubated for 15 mins irradiated with 7.5 to 10 mW/cm^-2 red light by JC-1 fluorescent probe based flow cytometric analysis (reference value: 1.0+/-0.00); assay type: cell membranes
Mitochondrial membrane [36] = test: Induction of mitochondrial membrane depolarization in human NCI-H1299 cells assessed as increase in monomer to aggregate ratio at 250 nM preincubated for 15 mins irradiated with 7.5 to 10 mW/cm^-2 red light by JC-1 fluorescent probe based flow cytometric analysis (reference value: 1.0+/-0.00); assay type: cell membranes

SMILES | Activity [1] | Activity [2] | Activity [3] | IC50 [4] [nM] | IC50 [5] [nM] | Activity (A549 [6]) | Activity (NCI-H1299 [7]) | Activity (A549 [8]) | Activity (NCI-H1299 [9]) | Activity (A549 [10]) [%] | Activity (NCI-H1299 [15]) | Activity (NCI-H1299 [16]) [%] | Activity (NCI-H1299 [17]) [%] | Activity (NCI-H1299 [18]) [%] | Activity (NCI-H1299 [19]) [%] | Activity (NCI-H1299 [20]) | also measured
C/C(=N\NS(=O)(=O)c1ccc(C)cc1)c1c2nc(c(-c3ccccc3)c3ccc([nH]3)c3ccc([nH]3)c(-c3ccccc3)c3ccc1[nH]3)C=C2 | 0.114 | 0.282 | 0.26 | 101 | 52.3 | Non-toxic | Non-toxic | Non-toxic | 73.8% | 48 | >=75% | 23.2 | 75.5 | 12.7 | 19.8 | Active | Activity (A549 [11]): 16.9%; Activity (A549 [12]): 24.6%; viability at 0.5 µM (A549 [13]): 2%; Activity (A549 [14]): 92.7%
C/C(=N/NC(=O)OC(C)(C)C)c1c2nc(c(-c3ccccc3)c3ccc([nH]3)c3ccc([nH]3)c(-c3ccccc3)c3ccc1[nH]3)C=C2 | 0.14 | 0.267 | 0.39 | 94.9 | 25 | Non-toxic | Non-toxic | Non-toxic | Non-toxic | 20.8 | >=75% | 57.9 | 28.8 | 20.1 | 69 | Active | Activity (A549 [21]): Active; Activity (NCI-H1299 [22]): Active; Activity (NCI-H1299 [23]): Active; Activity (A549 [24]): Active; Activity (A549 [25]): 18%; Activity (A549 [26]): 21%; Activity (A549 [27]): 17.5%; Activity (A549 [28]): 35.5%; Activity (A549 [29]): 38%; Activity (A549 [30]): 22.8%; Activity (A549 [31]): 26.5%; IC50 (A549 [32]): 373 nM; Activity (Mitochondrial membrane [33]): 39.7; Activity (Mitochondrial membrane [34]): 47.7; Activity (Mitochondrial membrane [35]): 1.7; Activity (Mitochondrial membrane [36]): 4
